Experimental data from ChEMBL document CHEMBL4732103, “Development of Indoleamine 2,3-Dioxygenase 1 Inhibitors for Cancer Therapy and Beyond: A Recent Perspective” (J Med Chem, 2020).

What was measured:
[1] = target: Indoleamine 2,3-dioxygenase 1 (Mus musculus, UniProt P28776); experiment: Inhibition of mouse IDO1 expressed in mouse P1.HTR cells assessed as inhibition of Kyn production incubated for 16 hrs by HPLC analysis; type: cell-based
[2] = target: T1, Indoleamine 2,3-dioxygenase 1 (Homo sapiens, UniProt P14902); experiment: Inhibition of recombinant human IDO1 expressed in Escherichia coli BL21(DE3) incubated for 15 mins by Dixon plot analysis
[3] = target: Tryptophan 2,3-dioxygenase (Homo sapiens, UniProt P48775); experiment: Inhibition of recombinant human TDO expressed in Escherichia coli Rosetta (DE3) pLysS incubated for 20 mins by Dixon plot analysis
[4] = target: T1, Indoleamine 2,3-dioxygenase 1; experiment: Binding affinity to recombinant human IDO1 expressed in Escherichia coli BL21 incubated for 4 hrs by UV-Visible Spectroscopy
[5] = target: T1, Indoleamine 2,3-dioxygenase 1; experiment: Inhibition of human IDO1
[6] = target: T1, Indoleamine 2,3-dioxygenase 1; experiment: Inhibition of IDO1 in human HeLa cells; type: cell-based
[7] = tested on: HEK-293T; experiment: Cytotoxicity against HEK293T cells; type: cell-based; details: Homo sapiens
[8] = target: T1, Indoleamine 2,3-dioxygenase 1; experiment: Inhibition of human IDO1 incubated for 60 mins using L-tryptophan as substrate by absorbance method
[9] = target: T1, Indoleamine 2,3-dioxygenase 1; experiment: Inhibition of human IDO1 using D-Trp as substrate by absorbance method
[10] = target: T1, Indoleamine 2,3-dioxygenase 1; experiment: Inhibition of IDO1 in IFN-gamma stimulated human HeLa cells assessed as effect on kynurenine level incubated for 48 hrs by p-dimethylaminobenzaldehyde based assay
[11] = target: T1, Indoleamine 2,3-dioxygenase 1; experiment: Inhibition of human N-terminal His-tagged IDO1 expressed in Escherichia coli M15 incubated for 1 hr by UV-Vis spectrophotometric method
[12] = target: T1, Indoleamine 2,3-dioxygenase 1; experiment: Inhibition of human IDO1 in IFN-stimulated human MDA-MB-231 cells preincubated for 48 hrs followed by L-tryptophan addition and measured after 5 hrs by UV-Vis spectrophotometric method; type: cell-based
[13] = Cytotoxicity against human HeLa cells incubated for 48 hrs by MTT assay; type: cell-based
[14] = target: Protein cereblon/Indoleamine 2,3-dioxygenase 1 (Homo sapiens, UniProt P14902+Q96SW2); experiment: Induction of CRBN-mediated IDO1 degradation in IFNgamma-stimulated human HeLa cells incubated for 24 hrs by Western blot analysis
[15] = target: T1, Indoleamine 2,3-dioxygenase 1; experiment: Inhibition of recombinant human IDO1 expressed in Escherichia coli BL21(DE3) assessed as effect on kynurenine level using L-tryptophan as substrate incubated for 1 hr by Ehrlich's reagent based assay
[16] = target: T1, Indoleamine 2,3-dioxygenase 1; experiment: Inhibition of IDO1 in human SK-OV-3 cells assessed as effect on KYN level using L-tryptophan as substrate incubated for 18 hrs by 4-(dimethylamino)benzaldehyde based absorbance method; type: cell-based
[17] = Inhibition of IDO1/TDO2 in human BT-549 cells assessed as suppression of kynurenine using L-tryptophan as substrate for 18 hrs by 4-(dimethylamino)benzaldehyde based absorbance method; type: cell-based; details: BT-549, 18 h
[18] = target: T1, Indoleamine 2,3-dioxygenase 1; experiment: Inhibition of IDO1 in IFN-gamma stimulated human HeLa cells centrifuged for 10 mins
[19] = target: T1, Indoleamine 2,3-dioxygenase 1; experiment: Inhibition of IDO1 in IFN-gamma stimulated human HeLa cells assessed as effect on KYN level incubated for 48 hrs by rapidfire-mass spectrometry
[20] = target: T1, Indoleamine 2,3-dioxygenase 1; experiment: Inhibition of human 6His/FLAG-tagged/Avi/TEV-fused IDO1 expressed in Escherichia coli by absorbance method
[21] = target: T1, Indoleamine 2,3-dioxygenase 1; experiment: Inhibition of human His6-tagged IDO1 expressed in Escherichia coli BL21 incubated for 90 mins using L-tryptophan as substrate by fluorescence assay
[22] = target: T1, Indoleamine 2,3-dioxygenase 1; experiment: Inhibition of IDO1 in IFN-gamma stimulated human HeLa cells
[23] = target: T1, Indoleamine 2,3-dioxygenase 1; experiment: Inhibition of IDO1 (unknown origin) by cell-based assay
[24] = target: T1, Indoleamine 2,3-dioxygenase 1; experiment: Inhibition of IDO1 (unknown origin)

T1 sequence (P14902 whole entry): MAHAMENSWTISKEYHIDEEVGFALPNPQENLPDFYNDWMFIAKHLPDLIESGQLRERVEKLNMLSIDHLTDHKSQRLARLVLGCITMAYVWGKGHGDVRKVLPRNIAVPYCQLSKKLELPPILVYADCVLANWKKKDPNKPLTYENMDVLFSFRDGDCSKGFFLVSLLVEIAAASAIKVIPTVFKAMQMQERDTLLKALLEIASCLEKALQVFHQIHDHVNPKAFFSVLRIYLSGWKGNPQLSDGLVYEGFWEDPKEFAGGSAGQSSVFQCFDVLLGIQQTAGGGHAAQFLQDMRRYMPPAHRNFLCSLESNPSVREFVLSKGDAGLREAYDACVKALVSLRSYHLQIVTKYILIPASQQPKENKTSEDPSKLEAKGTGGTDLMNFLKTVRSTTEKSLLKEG
Sequence of Indoleamine 2,3-dioxygenase 1 (Mus musculus, UniProt P28776) (P28776 whole entry): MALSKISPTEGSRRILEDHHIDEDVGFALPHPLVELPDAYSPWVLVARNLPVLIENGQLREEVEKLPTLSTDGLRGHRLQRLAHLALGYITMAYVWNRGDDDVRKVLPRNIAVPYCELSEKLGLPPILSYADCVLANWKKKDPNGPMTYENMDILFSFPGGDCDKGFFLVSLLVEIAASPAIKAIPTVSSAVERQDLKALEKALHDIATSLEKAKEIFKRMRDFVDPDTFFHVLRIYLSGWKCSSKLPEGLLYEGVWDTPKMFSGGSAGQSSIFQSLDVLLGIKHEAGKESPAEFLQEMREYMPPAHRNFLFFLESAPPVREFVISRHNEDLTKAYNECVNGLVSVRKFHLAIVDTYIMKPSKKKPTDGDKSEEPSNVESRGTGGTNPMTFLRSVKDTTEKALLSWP
Sequence of Tryptophan 2,3-dioxygenase (P48775 whole entry): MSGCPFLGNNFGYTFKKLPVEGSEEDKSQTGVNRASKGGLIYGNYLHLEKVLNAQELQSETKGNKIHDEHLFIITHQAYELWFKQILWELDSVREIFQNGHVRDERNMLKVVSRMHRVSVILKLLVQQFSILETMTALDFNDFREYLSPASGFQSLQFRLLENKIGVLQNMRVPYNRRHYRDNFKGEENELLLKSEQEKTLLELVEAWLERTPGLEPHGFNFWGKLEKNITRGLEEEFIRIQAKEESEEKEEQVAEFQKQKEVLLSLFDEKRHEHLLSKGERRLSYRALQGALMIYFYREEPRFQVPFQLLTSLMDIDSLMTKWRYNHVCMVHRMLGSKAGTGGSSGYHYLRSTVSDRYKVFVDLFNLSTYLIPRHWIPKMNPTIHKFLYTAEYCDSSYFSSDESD
Sequence of Protein cereblon/Indoleamine 2,3-dioxygenase 1 (P14902 whole entry): as the sequence (P14902 whole entry) above
Sequence of Protein cereblon/Indoleamine 2,3-dioxygenase 1 (Q96SW2 whole entry): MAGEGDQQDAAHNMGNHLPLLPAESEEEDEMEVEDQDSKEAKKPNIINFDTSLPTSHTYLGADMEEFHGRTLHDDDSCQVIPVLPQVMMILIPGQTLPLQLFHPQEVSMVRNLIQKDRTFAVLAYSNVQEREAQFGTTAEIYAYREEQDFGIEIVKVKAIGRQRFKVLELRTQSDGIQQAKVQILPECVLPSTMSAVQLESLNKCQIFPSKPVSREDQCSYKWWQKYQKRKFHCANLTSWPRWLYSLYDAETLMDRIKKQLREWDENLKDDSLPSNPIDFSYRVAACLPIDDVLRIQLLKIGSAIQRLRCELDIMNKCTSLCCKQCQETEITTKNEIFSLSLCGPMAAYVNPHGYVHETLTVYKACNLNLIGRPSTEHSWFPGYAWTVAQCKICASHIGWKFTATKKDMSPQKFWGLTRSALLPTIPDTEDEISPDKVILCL

Cc1c(C)n(CC(O)CNc2ccccc2)c2ccccc12 (stereo not drawn)
IC50 [1]: 11400 nM

O=C(c1ccccc1)C(c1ccccc1)C1(O)C(=O)Nc2c(Cl)cc(Cl)cc21 (stereo not drawn)
Ki [2]: 1000 nM | Ki [3]: 4000 nM

Clc1ccc(Nc2cn[nH]n2)cc1
Kd [4]: 2300 nM

COC1=C(OC)C(=O)C(Nc2cccc(Br)c2)=CC1=O
IC50 [5]: 130 nM | IC50 [6]: 11200 nM | IC50 [7]: 28000 nM

O=C(O)C[C@H]1CNC(=S)c2cc(Br)c(Br)n21
IC50 [8]: 92000 nM

O=C1c2nnn(Cc3ccccc3)c2C(=O)c2nnn(Cc3ccccc3)c21
IC50 [5]: 1 nM

O=C(Cc1cccc(N(CCCl)CCCl)c1)NCCNc1nonc1/C(=N/O)Nc1ccc(F)c(Br)c1
IC50 [9]: 130 nM | EC50 [10]: 270 nM

NC(=O)c1n[nH]nc1-c1ccc(F)c(F)c1
IC50 [11]: 110 nM | EC50 [12]: 74 nM

O=C1CCC(N2C(=O)c3cccc(NCCOCCOCCOCCOCCOCCOCCOCCNCCNc4nonc4/C(=N/O)Nc4ccc(F)c(Br)c4)c3C2=O)C(=O)N1 (stereo not drawn)
CC50 at 48 h [13]: 37400 nM | DC50 [14]: 2840 nM

C=C1OC2=C(C(=O)c3ccccc3C2=O)C1(C)C
IC50 [10]: 1010 nM

N#Cc1ccc(C(F)(F)F)c(SCC(=O)Nc2ccc(F)c(Cl)c2)n1
IC50 [15]: 840 nM

NS(=O)(=O)NCCNC(=O)c1n[nH]nc1-c1ccc(F)cc1
IC50 [11]: 92 nM | EC50 [12]: 74 nM

CC1=C(CC(=O)c2sccc2C)C(=O)c2ccccc2C1=O
IC50 [16]: > 40000 nM | IC50 [17]: 3420 nM

CC(C)CN(c1ccc(-c2c(C(=O)O)ccc3ccccc23)cc1NC(=O)Nc1ccc(Br)cc1F)C1CCCCC1
IC50 [18]: 2.6 nM

CC(C)CN(CC(C)C)c1ccc([C@H](C)CC(=O)O)cc1NCNc1nc(C(F)(F)F)ns1
IC50 [19]: 5.9 nM | IC50 [20]: 39 nM

O=C(CSc1nnc2scc(-c3ccccc3)n12)Nc1ccc2c(c1)OCO2
IC50 [21]: 3000 nM

Nc1nonc1/C(=N/O)N1Cc2ccccc2C1
IC50 [22]: 1570 nM

C[C@@H](NC(=O)c1ccc(F)cc1)c1ccc2c(c1)CCN2C(=O)C1CCOCC1 [LY-3381916]
IC50 [23]: 7 nM

c1ccc2c(c1)[nH]c1cnccc12 [NORHARMANE]
Ki [24]: 180000 nM
